In patent US11566057B2, “Long-acting co-agonists of the glucagon and GLP-1 receptors” (Merck Sharp & Dohme Corp., priority 2017, dated 2023):
Where two headings read alike, the source gives them in different places. Numbered stars: 1 amine (or outer) side, 2 acyl side, 3 side chain; on linkers, the order of the positions; unused ones are H or OH. Square brackets hold non-standard residues; d marks the D form. Side chains are listed from the residue outwards. Peptide text beside a SMILES is read from it. * marks the point of attachment. C20 diacid = O=C(O)CCCCCCCCCCCCCCCCCCC(=O)*; Phe(4-CH2NH2) = NCc1ccc(C[C@H](N)C(=O)O)cc1; C18 diacid = O=C(O)CCCCCCCCCCCCCCCCC(=O)*; C16 diacid = O=C(O)CCCCCCCCCCCCCCC(=O)*; γGlu = O=C(O)[C@H](CCC(=O)[*:2])N[*:1]; Met(O2) = CS(=O)(=O)CC[C@H](N)C(=O)O; αMeF = C[C@](N)(Cc1ccccc1)C(=O)O; AEEA = NCCOCCOCC(=O)O; Aib = CC(C)(N)C(=O)O

What was measured:
[1] = molecular target: T1, human GCGR (Homo sapiens, UniProt P47871); assay: cAMP activity assay at the Glucagon receptor (GCGR); type: cell-based; settings: for hGCGR/hGLP1R (hTone): ratio of GCGR EC50 to GLP1R EC50
T1 construct: expressed in transfected cells; growth medium holds Blasticidin and Hygromycin
In short: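 Peptides serially diluted from DMSO (10 points) and added to frozen-stock cells bearing human GLP1R (10,000 cells/well) or GCGR (30,000 cells/well), 1 h at RT, dark. EC50 by four-parameter logistic fit of HitHunter cAMPXS luminescence, read following overnight RT incubation.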

[2] = molecular target: T2, human GLP1R (Homo sapiens, UniProt P43220); assay: cAMP activity assay at the GLP-1 receptor (GLP1R); type: cell-based
T2 construct: expressed in transfected cells; growth medium holds Blasticidin and Hygromycin
Experimental: Activity of the peptides at the Glucagon receptor (GCGR) and GLP-1 receptor (GLP1R) was measured in a cAMP activity assay.
GCG/GLP-1 receptor co-agonist peptides were dissolved in 100% DMSO (dimethyl sulfoxide) and serially diluted to generate 10 point titrations. The peptide solutions were then transferred into 384-well assay plates (150 nL/well). Assay ready frozen cells expressing human GLP1R or human GCGR were suspended in growth media consisting of DMEM medium (GIBCO®), 10% FBS (GIBCO®), 1×NEAA(GIBCO®), 1×P/S (GIBCO®), 10 ug/mL Blasticidin (GIBCO®) and 200 μg/mL Hygromycin (GIBCO®). […] The cell suspensions (15 μL) were then added to the assay plates containing the peptide solutions (30,000 cells/well for human GCGR; 10,000 cells/well for human GLP1R). The cells were incubated for 1 hour at room temperature in the dark. Production of cAMP was determined using HitHunter™ cAMPXS kits (DiscoverX) following manufacturer protocol. The plates were incubated for overnight at room temperature in the dark. Luminescence was measured using an EnVision Multilabel plate reader (Perkin Elmer). Native GLP-1 and Glucagon (Bachem) are used as control peptides. EC50 values were calculated using uses a 4 parameter logistic fit based on the Levenberg-Marquardt algorithm.

[3] = summary statement: EC50 at each of the glucagon and GLP-1 receptors, read-out: EC50 at the glucagon receptor
[4] = summary statement: EC50 at each of the glucagon and GLP-1 receptors, read-out: EC50 at the GLP-1 receptor
[5] = cells expressing human GLP1R, cAMP production, buffer with or without 20% human serum (not stated which), read-out: GLP1R EC50 human

T1 sequence (P47871 26-477): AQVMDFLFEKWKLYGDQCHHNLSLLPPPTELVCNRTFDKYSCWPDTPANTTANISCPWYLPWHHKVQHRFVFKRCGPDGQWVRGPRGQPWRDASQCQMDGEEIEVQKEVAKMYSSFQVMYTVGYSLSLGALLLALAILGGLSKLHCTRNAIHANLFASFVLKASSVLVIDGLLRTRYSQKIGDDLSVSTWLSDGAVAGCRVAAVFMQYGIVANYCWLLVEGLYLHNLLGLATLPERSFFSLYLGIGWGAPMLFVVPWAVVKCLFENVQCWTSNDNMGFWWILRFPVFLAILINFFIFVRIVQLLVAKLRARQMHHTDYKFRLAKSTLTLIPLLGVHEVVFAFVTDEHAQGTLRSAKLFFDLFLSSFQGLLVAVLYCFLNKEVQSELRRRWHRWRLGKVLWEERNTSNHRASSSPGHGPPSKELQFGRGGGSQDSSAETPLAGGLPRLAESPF
T2 sequence (P43220 24-463): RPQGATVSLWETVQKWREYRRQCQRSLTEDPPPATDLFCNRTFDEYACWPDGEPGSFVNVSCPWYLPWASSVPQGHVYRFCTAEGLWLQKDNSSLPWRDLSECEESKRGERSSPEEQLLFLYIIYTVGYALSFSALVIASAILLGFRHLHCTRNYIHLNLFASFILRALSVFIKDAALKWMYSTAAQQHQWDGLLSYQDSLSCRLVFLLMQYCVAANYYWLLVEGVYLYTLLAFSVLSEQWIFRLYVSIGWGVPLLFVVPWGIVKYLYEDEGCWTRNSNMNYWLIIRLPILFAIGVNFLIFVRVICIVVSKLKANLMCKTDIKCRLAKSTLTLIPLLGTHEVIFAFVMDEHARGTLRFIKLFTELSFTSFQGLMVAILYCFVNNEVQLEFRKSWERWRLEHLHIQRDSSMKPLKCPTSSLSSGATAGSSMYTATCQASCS

hGCGR/hGLP1R (hTone) [1] | EC50 [1, 3] [nM] | EC50 [2, 4] [nM] | EC50 ([1]; cells expressing human GCGR, cAMP production, buffer with or without 20% human serum (not stated which), read-out: GCGR EC50 human) [nM] | EC50 [2, 5] [nM] | SMILES
3.1 | < 5 | < 5 | – | – | CC(C)C[C@H](NC(=O)[C@H](Cc1ccc(O)cc1)NC(=O)[C@H](CCCCN)NC(=O)[C@H](CO)NC(=O)[C@H](Cc1ccc(O)cc1)NC(=O)[C@H](CC(=O)O)NC(=O)[C@H](CO)NC(=O)[C@@H](NC(=O)[C@H](Cc1ccccc1)NC(=O)[C@@H](NC(=O)CNC(=O)[C@H](CCC(N)=O)NC(=O)C(C)(C)NC(=O)[C@@H](N)Cc1c[nH]cn1)[C@@H](C)O)[C@@H](C)O)C(=O)N[C@@H](CC(=O)O)C(=O)N[C@@H](C)C(=O)N[C@@H](CCCNC(=N)N)C(=O)N[C@@H](C)C(=O)N[C@@H](C)C(=O)N[C@@H](CCCCNC(=O)COCCOCCNC(=O)COCCOCCNC(=O)CC[C@H](NC(=O)CCCCCCCCCCCCCCCCCCC(=O)O)C(=O)O)C(=O)N[C@@H](CC(=O)O)C(=O)N[C@@](C)(Cc1ccccc1)C(=O)N[C@H](C(=O)N[C@@H](CCC(N)=O)C(=O)N[C@@H](Cc1c[nH]c2ccccc12)C(=O)N[C@@H](CC(C)C)C(=O)N[C@@H](CCS(C)(=O)=O)C(=O)N[C@@H](CC(=O)O)C(=O)N[C@H](C(N)=O)[C@@H](C)O)C(C)C [TP590] (H-H[Aib]QGTFTSDYSKYLDARAAK([AEEA-AEEA-γGlu-C20 diacid])D[αMeF]VQWL[Met(O2)]DT-NH2)
3.3 | < 5 | < 5 | – | – | CC(C)C[C@H](NC(=O)[C@H](Cc1ccc(O)cc1)NC(=O)[C@H](CCCCN)NC(=O)[C@H](CO)NC(=O)[C@H](Cc1ccc(O)cc1)NC(=O)[C@H](CC(=O)O)NC(=O)[C@H](CO)NC(=O)[C@@H](NC(=O)[C@H](Cc1ccccc1)NC(=O)[C@@H](NC(=O)CNC(=O)[C@H](CCC(N)=O)NC(=O)C(C)(C)NC(=O)[C@@H](N)Cc1c[nH]cn1)[C@@H](C)O)[C@@H](C)O)C(=O)N[C@@H](CC(=O)O)C(=O)N[C@@H](C)C(=O)N[C@@H](CCCNC(=N)N)C(=O)N[C@@H](C)C(=O)N[C@@H](C)C(=O)N[C@@H](CCC(N)=O)C(=O)N[C@@H](CC(=O)O)C(=O)N[C@@H](Cc1ccccc1)C(=O)N[C@H](C(=O)N[C@@H](Cc1ccc(CNC(=O)COCCOCCNC(=O)CC[C@H](NC(=O)CCCCCCCCCCCCCCCCC(=O)O)C(=O)O)cc1)C(=O)N[C@@H](Cc1c[nH]c2ccccc12)C(=O)N[C@@H](CC(C)C)C(=O)N[C@@H](CC(C)C)C(=O)N[C@@H](CC(=O)O)C(=O)N[C@H](C(N)=O)[C@@H](C)O)C(C)C [TP638] (H-H[Aib]QGTFTSDYSKYLDARAAQDFV[Phe(4-CH2NH2)]([AEEA-γGlu-C18 diacid])WLLDT-NH2)
0.8 | < 5 | < 5 | 0.21 | 0.26 | CC(C)C[C@H](NC(=O)[C@H](Cc1c[nH]c2ccccc12)NC(=O)[C@H](CCCCNC(=O)COCCOCCNC(=O)COCCOCCNC(=O)CC[C@H](NC(=O)CCCCCCCCCCCCCCC(=O)O)C(=O)O)NC(=O)[C@@H](NC(=O)[C@H](Cc1ccccc1)NC(=O)[C@H](CC(=O)O)NC(=O)[C@H](CCC(N)=O)NC(=O)[C@H](C)NC(=O)[C@H](C)NC(=O)[C@H](CCCNC(=N)N)NC(=O)C(C)(C)NC(=O)[C@H](CC(=O)O)NC(=O)[C@H](CC(C)C)NC(=O)[C@H](Cc1ccc(O)cc1)NC(=O)[C@H](CCCCN)NC(=O)[C@H](CO)NC(=O)[C@H](Cc1ccc(O)cc1)NC(=O)[C@H](CC(=O)O)NC(=O)[C@H](CO)NC(=O)[C@@H](NC(=O)[C@H](Cc1ccccc1)NC(=O)[C@@H](NC(=O)CNC(=O)[C@H](CCC(N)=O)NC(=O)C(C)(C)NC(=O)[C@@H](N)Cc1c[nH]cn1)[C@@H](C)O)[C@@H](C)O)C(C)C)C(=O)N[C@@H](CCS(C)(=O)=O)C(=O)N[C@@H](CC(=O)O)C(=O)N[C@H](C(N)=O)[C@@H](C)O [TP811] (H-H[Aib]QGTFTSDYSKYLD[Aib]RAAQDFVK([AEEA-AEEA-γGlu-C16 diacid])WL[Met(O2)]DT-NH2; N-terminus assumed)
2.7 | < 5 | < 5 | – | – | CC(C)C[C@H](NC(=O)[C@H](Cc1ccc(O)cc1)NC(=O)[C@H](CCCCN)NC(=O)[C@H](CO)NC(=O)[C@H](Cc1ccc(O)cc1)NC(=O)[C@H](CC(=O)O)NC(=O)[C@H](CO)NC(=O)[C@@H](NC(=O)[C@H](Cc1ccccc1)NC(=O)[C@@H](NC(=O)CNC(=O)[C@H](CCC(N)=O)NC(=O)C(C)(C)NC(=O)[C@@H](N)Cc1c[nH]cn1)[C@@H](C)O)[C@@H](C)O)C(=O)N[C@@H](CC(=O)O)C(=O)N[C@@H](C)C(=O)N[C@@H](CCCNC(=N)N)C(=O)N[C@@H](C)C(=O)N[C@@H](C)C(=O)N[C@@H](CCCCNC(=O)COCCOCCNC(=O)COCCOCCNC(=O)CC[C@H](NC(=O)CCCCCCCCCCCCCCC(=O)O)C(=O)O)C(=O)N[C@@H](CC(=O)O)C(=O)N[C@@H](Cc1ccccc1)C(=O)N[C@H](C(=O)N[C@@H](CCC(N)=O)C(=O)N[C@@H](Cc1c[nH]c2ccccc12)C(=O)N[C@@H](CC(C)C)C(=O)N[C@@H](CCS(C)(=O)=O)C(=O)N[C@@H](CCC(=O)N[C@H](C(N)=O)[C@@H](C)O)C(=O)O)C(C)C [TP826] (H-H[Aib]QGTFTSDYSKYLDARAAK([AEEA-AEEA-γGlu-C16 diacid])DFVQWL[Met(O2)][γGlu]T-NH2)
1.6 | < 5 | < 5 | – | – | CC(C)C[C@H](NC(=O)[C@H](Cc1ccc(O)cc1)NC(=O)[C@H](CCCCN)NC(=O)[C@H](CO)NC(=O)[C@H](Cc1ccc(O)cc1)NC(=O)[C@H](CC(=O)O)NC(=O)[C@H](CO)NC(=O)[C@@H](NC(=O)[C@H](Cc1ccccc1)NC(=O)[C@@H](NC(=O)CNC(=O)[C@H](CCC(N)=O)NC(=O)C(C)(C)NC(=O)[C@@H](N)Cc1c[nH]cn1)[C@@H](C)O)[C@@H](C)O)C(=O)N[C@@H](CC(=O)O)C(=O)N[C@@H](C)C(=O)N[C@@H](CCCNC(=N)N)C(=O)N[C@@H](C)C(=O)N[C@@H](C)C(=O)N[C@@H](CCC(N)=O)C(=O)N[C@@H](CCCCNC(=O)COCCOCCNC(=O)COCCOCCNC(=O)CC[C@H](NC(=O)CCCCCCCCCCCCCCC(=O)O)C(=O)O)C(=O)N[C@@H](Cc1ccccc1)C(=O)N[C@H](C(=O)N[C@@H](CCC(N)=O)C(=O)N[C@@H](Cc1c[nH]c2ccccc12)C(=O)N[C@@H](CC(C)C)C(=O)N[C@@H](CCS(C)(=O)=O)C(=O)N[C@@H](CCC(=O)N[C@H](C(N)=O)[C@@H](C)O)C(=O)O)C(C)C [TP827] (H-H[Aib]QGTFTSDYSKYLDARAAQK([AEEA-AEEA-γGlu-C16 diacid])FVQWL[Met(O2)][γGlu]T-NH2)
0.4 | < 5 | < 5 | – | 0.71 | CC(C)C[C@H](NC(=O)[C@H](Cc1c[nH]c2ccccc12)NC(=O)[C@H](CCCCNC(=O)COCCOCCNC(=O)COCCOCCNC(=O)CC[C@H](NC(=O)CCCCCCCCCCCCCCCCC(=O)O)C(=O)O)NC(=O)[C@@H](NC(=O)[C@H](Cc1ccccc1)NC(=O)[C@H](CC(=O)O)NC(=O)[C@H](CCC(N)=O)NC(=O)[C@H](C)NC(=O)[C@H](C)NC(=O)[C@H](CCCNC(=N)N)NC(=O)C(C)(C)NC(=O)[C@H](CC(=O)O)NC(=O)[C@H](CC(C)C)NC(=O)[C@H](Cc1ccc(O)cc1)NC(=O)[C@H](CCCCN)NC(=O)[C@H](CO)NC(=O)[C@H](Cc1ccc(O)cc1)NC(=O)[C@H](CC(=O)O)NC(=O)[C@H](CO)NC(=O)[C@@H](NC(=O)[C@H](Cc1ccccc1)NC(=O)[C@@H](NC(=O)CNC(=O)[C@H](CCC(N)=O)NC(=O)C(C)(C)NC(=O)[C@@H](N)Cc1c[nH]cn1)[C@@H](C)O)[C@@H](C)O)C(C)C)C(=O)N[C@@H](CCS(C)(=O)=O)C(=O)N[C@@H](CCC(=O)O)C(=O)N[C@H](C(N)=O)[C@@H](C)O [TP675] (H-H[Aib]QGTFTSDYSKYLD[Aib]RAAQDFVK([AEEA-AEEA-γGlu-C18 diacid])WL[Met(O2)]ET-NH2)
